Reference: US10696623B2, “Phenolic acid derivative compound and use thereof” (DAEBONG LS, LTD, priority 2015, dated 2020)

Test: DPPH radical scavenging activity (antioxidant effect)
Type: biochemical
Settings: 0.2 mM DPPH in methanol, 10 min at room temperature, absorbance 517 nm; compared with ascorbic acid (FIG. 1)
Method: The 1,1-diphenyl-2-picrylhydrazyl (DPPH) radical scavenging activities of the phenolic acid derivative compounds prepared in Examples 1-5 were measured to evaluate the antioxidant activities of the compounds against free radicals. Ascorbic acid was used as a positive control.
1,1-Diphenyl-2-picrylhydrazyl (DPPH) radical was purchased from Sigma Chemical Co. (USA) and L-ascorbic acid purchased from Sigma (USA) were used for testing.
100 μl of a 0.2 mM DPPH solution in methanol and 100 μl of each of the compounds at different concentrations were prepared in a 96-well plate. After the reaction was allowed to proceed at room temperature for 10 min, the absorbance of each sample was measured at 517 nm.

SMILES: CCOC(=O)[C@H](Cc1ccccc1)NC(=O)c1cc(O)c(O)c(O)c1 [Example 1, (S)-ethyl-3-phenyl-2-(3,4,5-trihydroxybenzamido)propanoate]
- DPPH radical scavenging activity (antioxidant activity): high activity compared to the control ascorbic acid
